Data: patent US20200017496A1 (priority 2017, published 2020)
Where two headings read alike, the source gives them in different places.

What was measured:
Assay in all cases: MIC of compounds alone and combined with antibacterials, broth microdilution (CLSI)
Format in all cases: cell-based
[1] = tested on: Citrobacter freundii (CFR) isolates; conditions: for MIC: Citrobacter freundii, read-out: MIC
Method: (§1) Method 2: MIC of Compounds Alone and Combined with Antibacterials Against Bacterial Isolates.
(§2) Compounds of the present invention were assessed against genotyped bacterial strains (Table 3, 4) alone or in combination with an antibacterial (Table 2). […] Log phase bacterial suspensions were adjusted to a final density of 5·10^5 CFU/mL in cation-adjusted Mueller-Hinton broth (ca-MHB; Becton-Dickinson and Company) and added to each well (98 μL). Microplates were incubated for 16-20 h at 35° C. in ambient air. The MIC of the compounds was defined as the lowest concentration of said compounds that prevented bacterial growth as read by visual inspection. The MIC of ATB at each compound concentration was defined as the lowest concentration of ATB that prevented bacterial growth as read by visual inspection.

[2] = tested on: Citrobacter koseri (CKR) isolates; conditions: for MIC: Citrobacter koseri, read-out: MIC
Method: as §1, §2

[3] = tested on: Enterobacter aerogenes (EAE) isolates; conditions: for MIC: Klebsiella aerogenes, read-out: MIC
Method: as §1, §2

[4] = tested on: Escherichia coli (ECO) isolates
Method: as §1, §2

C=CC1=C(C(=O)O)N2C(=O)[C@@H](NC(=O)/C(=N\OCC(=O)O)c3csc(N)n3)[C@H]2SC1 [FIX, Cefixime]
MIC ([1]; strain CFR UFR146 (TEM-1, KPC-2), CLA @ 4 μg/ml+ ATB): 64 mg/L
MIC ([1]; strain CFR UFR248 (CTX-M-15), ATB alone): > 128 mg/L
MIC ([1]; strain CFR UFR248 (CTX-M-15), CLA @ 4 μg/ml+ ATB): 4 mg/L
MIC ([1]; strain CFR UFR249 (TEM-1, CTX-M-15), ATB alone): > 128 mg/L
MIC ([1]; strain CFR UFR249 (TEM-1, CTX-M-15), CLA @ 4 μg/ml+ ATB): 2 mg/L
MIC ([1]; strain CFR UFR250 (TEM-1, SHV-28, CTX-M-15), ATB alone): > 128 mg/L
MIC ([1]; strain CFR UFR250 (TEM-1, SHV-28, CTX-M-15), CLA @ 4 μg/ml+ ATB): 2 mg/L
MIC ATB in combination ([1]; strain CFR UFR253, antibacterial combined with AF1 @ 4 μg/mL): 32 mg/L
MIC ATB in combination ([1]; strain CFR UFR253, antibacterial combined with AF1 @ 8 μg/mL): 16 mg/L
MIC ATB in combination ([1]; strain CFR UFR254, antibacterial combined with AF1 @ 4 μg/mL): 0.5 mg/L
MIC ATB in combination ([1]; strain CFR UFR254, antibacterial combined with AF1 @ 8 μg/mL): <=0.25 μg/mL
MIC ATB in combination ([2]; CKO ROU, AF1 @ 4 μg/mL): <=0.25 μg/mL
MIC ATB in combination ([2]; CKO ROU, AF1 @ 8 μg/mL): <=0.25 μg/mL
MIC ATB in combination ([2]; CKO UFR149, AF1 @ 4 μg/mL): 0.5 mg/L
MIC ATB in combination ([2]; CKO UFR149, AF1 @ 8 μg/mL): <=0.25 μg/mL
MIC ATB in combination ([2]; CKO UFR150, AF1 @ 4 μg/mL): 2 mg/L
MIC ATB in combination ([2]; CKO UFR150, AF1 @ 8 μg/mL): 1 mg/L
MIC ([2]; strain CKO ROU (TEM-1, SHV-12, CTX-M-15, OXA-1, OXA-48), ATB alone): 1 mg/L
MIC ([2]; strain CKO ROU (TEM-1, SHV-12, CTX-M-15, OXA-1, OXA-48), CLA @ 4 μg/ml+ ATB): 2 mg/L
MIC ([2]; strain CKO UFR149 (OXA-48), ATB alone): 0.5 mg/L
MIC ([2]; strain CKO UFR149 (OXA-48), CLA @ 4 μg/ml+ ATB): 1 mg/L
MIC ([2]; strain CKO UFR150 (TEM-1, OXA-48), ATB alone): 2 mg/L
MIC ([2]; strain CKO UFR150 (TEM-1, OXA-48), CLA @ 4 μg/ml+ ATB): 2 mg/L
MIC ATB in combination ([3]; EAE 49469, AF1 @ 4 μg/mL): 32 mg/L
MIC ATB in combination ([3]; EAE 49469, AF1 @ 8 μg/mL): 16 mg/L
MIC ATB in combination ([3]; EAE 200261, AF1 @ 4 μg/mL): 32 mg/L
MIC ATB in combination ([3]; EAE 200261, AF1 @ 8 μg/mL): 4 mg/L
MIC ATB in combination ([3]; EAE UFR199, AF1 @ 4 μg/mL): 1 mg/L
MIC ATB in combination ([3]; EAE UFR199, AF1 @ 8 μg/mL): 0.25 mg/L
MIC ATB in combination ([3]; EAE UFR201, AF1 @ 4 μg/mL): <=0.25 μg/mL
MIC ATB in combination ([3]; EAE UFR201, AF1 @ 8 μg/mL): <=0.25 μg/mL
MIC ATB in combination ([3]; EAE UFR202, AF1 @ 4 μg/mL): 16 mg/L
MIC ATB in combination ([3]; EAE UFR202, AF1 @ 8 μg/mL): 4 mg/L
MIC ATB in combination ([3]; EAE UFR213, AF1 @ 4 μg/mL): 1 mg/L
MIC ATB in combination ([3]; EAE UFR213, AF1 @ 8 μg/mL): 0.5 mg/L
MIC ([3]; EAE UFR199, alone): > 1020 mg/L
MIC ([3]; strain EAE 49469 (AmpC), ATB alone): > 128 mg/L
MIC ([3]; strain EAE 49469 (AmpC), CLA @ 4 μg/ml+ ATB): > 128 mg/L
MIC ([3]; strain EAE 200261 (TEM-x, AmpC), ATB alone): > 128 mg/L
MIC ([3]; strain EAE 200261 (TEM-x, AmpC), CLA @ 4 μg/ml+ ATB): > 128 mg/L
MIC ([3]; strain EAE UFR199 (TEM-1b, SHV-12, KPC-2, OXA-9), ATB alone): > 1020 mg/L
MIC ([3]; strain EAE UFR199 (TEM-1b, SHV-12, KPC-2, OXA-9), CLA @ 4 μg/ml+ ATB): 16 mg/L
MIC ([3]; strain EAE UFR201 (TEM-1, SHV-12, CTX-M-15), ATB alone): > 128 mg/L
MIC ([3]; strain EAE UFR201 (TEM-1, SHV-12, CTX-M-15), CLA @ 4 μg/ml+ ATB): ≤ 0.25 mg/L
MIC ([3]; strain EAE UFR202 (TEM-24), ATB alone): > 128 mg/L
MIC ([3]; strain EAE UFR202 (TEM-24), CLA @ 4 μg/ml+ ATB): > 128 mg/L
MIC ([3]; strain EAE UFR213 (TEM-24), ATB alone): > 128 mg/L
MIC ([3]; strain EAE UFR213 (TEM-24), CLA @ 4 μg/ml+ ATB): > 128 mg/L
MIC ATB in combination [4]: >128 mg/L
MIC ATB in combination ([4]; ECO 4133, AF1 @ 4 μg/mL): <=0.25 μg/mL
MIC ATB in combination ([4]; ECO 4133, AF1 @ 8 μg/mL): <=0.25 μg/mL
MIC ATB in combination ([4]; ECO 5302, AF1 @ 4 μg/mL): <=0.25 μg/mL
MIC ATB in combination ([4]; ECO 5302, AF1 @ 8 μg/mL): <=0.25 μg/mL
MIC ATB in combination ([4]; ECO 131119, AF1 @ 4 μg/mL): <=0.25 μg/mL
MIC ATB in combination ([4]; ECO 131119, AF1 @ 8 μg/mL): <=0.25 μg/mL
MIC ATB in combination ([4]; ECO 180070, AF1 @ 4 μg/mL): <=0.25 μg/mL
MIC ATB in combination ([4]; ECO 180070, AF1 @ 8 μg/mL): <=0.25 μg/mL
MIC ATB in combination ([4]; ECO 190314, AF1 @ 4 μg/mL): <=0.25 μg/mL
MIC ATB in combination ([4]; ECO 190314, AF1 @ 8 μg/mL): <=0.25 μg/mL
MIC ATB in combination ([4]; ECO 190317, AF1 @ 4 μg/mL): <=0.25 μg/mL
MIC ATB in combination ([4]; ECO 190317, AF1 @ 8 μg/mL): <=0.25 μg/mL
MIC ATB in combination ([4]; ECO 190457, AF1 @ 8 μg/mL): 0.031 mg/L
MIC ATB in combination ([4]; ECO 190549, AF1 @ 4 μg/mL): <=0.25 μg/mL
MIC ATB in combination ([4]; ECO 190549, AF1 @ 8 μg/mL): <=0.25 μg/mL
MIC ATB in combination ([4]; ECO 200159, AF1 @ 4 μg/mL): <=0.25 μg/mL
MIC ATB in combination ([4]; ECO 200159, AF1 @ 8 μg/mL): <=0.25 μg/mL
MIC ATB in combination ([4]; ECO 200259, AF1 @ 4 μg/mL): <=0.25 μg/mL
MIC ATB in combination ([4]; ECO 200259, AF1 @ 8 μg/mL): <=0.25 μg/mL
MIC ATB in combination ([4]; ECO 200344, AF1 @ 4 μg/mL): <=0.25 μg/mL
MIC ATB in combination ([4]; ECO 200344, AF1 @ 8 μg/mL): <=0.25 μg/mL
MIC ATB in combination ([4]; ECO 260096, AF1 @ 4 μg/mL): <=0.25 μg/mL
MIC ATB in combination ([4]; ECO 260096, AF1 @ 8 μg/mL): <=0.25 μg/mL
MIC ATB in combination ([4]; ECO 260304, AF1 @ 4 μg/mL): <=0.25 μg/mL
MIC ATB in combination ([4]; ECO 260304, AF1 @ 8 μg/mL): <=0.25 μg/mL
MIC ATB in combination ([4]; ECO 260508, AF1 @ 4 μg/mL): <=0.25 μg/mL
MIC ATB in combination ([4]; ECO 260508, AF1 @ 8 μg/mL): <=0.25 μg/mL
MIC ATB in combination ([4]; ECO RGN238, AF1 @ 4 μg/mL): <=0.25 μg/mL
